According to US11832615B2 (priority 2013, dated 2023):
Where two headings read alike, the source gives them in different places.

Legend:
[1] = system: Ralstonia solanacearum; assay type: in vivo; settings: tomato, 17 days after transplantation, 10 mgAI/m^2
[2] = system: Ralstonia solanacearum; assay type: in vivo; settings: tomato, 33 days after transplantation

COP(=S)(OC)Oc1ccc([N+](=O)[O-])c(C)c1 [MEP, MEP (fenitrothion)]
Controlling value (%) ([1]; with Paecilomyces fumosoroseus 3 × 10^9 CFU/m^2 (+)): 75%
Controlling value (%) ([1]; without Paecilomyces fumosoroseus (−)): 0%

CCOP(=O)(SC(C)CC)SC(C)CC (stereo not shown) [Cadusafos, cadusafos]
Controlling value (%) ([2]; 900 mgAI/m^2, with Paecilomyces fumosoroseus 3 × 10^9 CFU/m^2 (+)): 100%
Controlling value (%) ([2]; 900 mgAI/m^2, without Paecilomyces fumosoroseus (−)): 50%

O=S(=O)(CCC(F)=C(F)F)c1ncc(Cl)s1 [Fluensulfone, fluensulfone]
Controlling value (%) ([2]; 400 mgAI/m^2, with Paecilomyces fumosoroseus 3 × 10^9 CFU/m^2 (+)): 85%
Controlling value (%) ([2]; 400 mgAI/m^2, without Paecilomyces fumosoroseus (−)): 0%

O=C(NCCc1ncc(C(F)(F)F)cc1Cl)c1ccccc1C(F)(F)F [Fluopyram, fluopyram]
Controlling value (%) ([2]; 10 mgAI/m^2, with Paecilomyces fumosoroseus 3 × 10^9 CFU/m^2 (+)): 62%
Controlling value (%) ([2]; 10 mgAI/m^2, without Paecilomyces fumosoroseus (−)): 0%

CCOP(=O)(SC(C)CC)N1CCSC1=O (stereo not shown) [Fosthiazate, fosthiazate]
Controlling value (%) ([2]; 300 mgAI/m^2, with Paecilomyces fumosoroseus 3 × 10^9 CFU/m^2 (+)): 85%
Controlling value (%) ([2]; 300 mgAI/m^2, without Paecilomyces fumosoroseus (−)): 0%
